We go through 47 molecules from the OPERA property sets (Mansouri et al. 2018).

SMILES strings stand for the structures.

`Cc1cccc(C)n1` yielded a boiling point of 144 °C, a log10 Henry constant (atm·m³/mol) of -4.98, a log10 vapour pressure (mmHg) of 0.752 and a melting point of -6.1 °C.

`Cc1cccc([N+](=O)[O-])c1C`: the boiling point stood at 240 °C, the log10 vapour pressure (mmHg) is -0.445, the melting point stood at 15 °C and the ready biodegradability result was “not readily biodegradable”.

Turning to `ClC1=C(Cl)[C@]2(Cl)[C@@H]3[C@@H]4C[C@@H]([C@H]5O[C@@H]45)[C@@H]3[C@@]1(Cl)C2(Cl)Cl` (single isomer, unassigned), the boiling point amounted to 330 °C, the log10 Henry constant (atm·m³/mol) is -5.09, the log10 Koa is 8.52 and the log10 Koc (L/kg) stood at 4.08. The log10 vapour pressure (mmHg) is -5.38, the melting point was found to be 202 °C and the ready biodegradability entry was “not readily biodegradable”.

In the case of `CCC1(C)CC(=O)NC(=O)C1`, the melting point came out at 126 °C.

In the case of `CCCCCCCCCCCCCCCCCC(=O)OCCC(C)C`, the melting point was 25.5 °C.

Consider `O=[N+]([O-])OCC(CCl)O[N+](=O)[O-]` (stereo not given), for which the boiling point amounted to 192 °C.

As to `O=C(O)CCN1C(=O)C=CC1=O`, the melting point was determined as 104 °C.

As for `Nc1cccc2ccccc12`, the boiling point was found to be 301 °C, the log10 Henry constant (atm·m³/mol) was -6.95, the log10 Koc (L/kg) was 3.51 and the log10 vapour pressure (mmHg) was -2.38. The melting point came to 49.2 °C and the ready biodegradability entry is reported as “not readily biodegradable”.

`CCCCCCCCCBr` came in with a log10 vapour pressure (mmHg) of -0.921.

The molecule `c1ccc2c(c1)Cc1ccccc1C2` had a boiling point of 305 °C and a melting point of 111 °C.

As to `COc1ccccc1O`, the boiling point amounted to 205 °C, the log10 Henry constant (atm·m³/mol) was -5.92, the log10 Koc (L/kg) came out at 1.56 and the log10 vapour pressure (mmHg) was -0.987. In addition, the melting point is 32 °C and the ready biodegradability entry was “readily biodegradable”.

For `CCCc1ccc(O)cc1O`, the melting point is 82.5 °C.

The molecule `CCC(C)C1(CC)C(=O)NC(=O)NC1=O` (stereo not given) came in with a melting point of 166 °C.

In turn, `Cc1ccc(C)n1C` showed a boiling point of 171 °C.

In turn, `OC1CCCCC1` gave a boiling point of 161 °C, a log10 Henry constant (atm·m³/mol) of -5.36, a log10 Koa of 5.18 and a log10 vapour pressure (mmHg) of -0.0969. Besides, the melting point worked out at 25.4 °C and the ready biodegradability entry is reported as “readily biodegradable”.

The molecule `COC(=O)CCC(=O)O` gave a melting point of 58 °C.

As to `NC(c1ccccc1)c1ccccc1`, the boiling point stood at 304 °C and the melting point amounted to 34 °C.

Molecule `O[C@@H](Cc1ccccc1)c1ccccc1` came in with a melting point of 67 °C.

For the molecule `BrC(Br)(Br)Br`, the boiling point stood at 190 °C, the log10 vapour pressure (mmHg) is -0.569 and the melting point amounted to 90.1 °C.

`COc1cccc([N+](=O)[O-])c1C` had a melting point of 55 °C.

In turn, `CC(=O)NC(N)=O` gave a melting point of 218 °C.

With `C[C@]12C/C(=C/O)C(=O)C[C@@H]1CC[C@@H]1[C@@H]2CC[C@@]2(C)[C@H]1CC[C@]2(C)O`, the melting point was determined as 179 °C.

Consider `Cn1c(=O)c2c(ncn2CC(O)CO)n(C)c1=O` (stereo not given), for which the melting point was 162 °C.

Regarding `ClCc1ccc2c(c1)OCO2`, the melting point worked out at 20.5 °C.

Turning to `CCN(C)c1ccccc1`, the boiling point stood at 204 °C.

For `C1CC1`, the boiling point is -32.8 °C, the log10 vapour pressure (mmHg) is 3.73 and the melting point is -127 °C.

The molecule `N#Cc1ccncc1C#N` returned a melting point of 80 °C.

Regarding `COC(=O)c1ccc(O)c(OC)c1`, the boiling point worked out at 286 °C and the melting point is 64 °C.

Regarding `Cc1n[nH]c(=S)[nH]c1=O`, the melting point worked out at 218 °C.

For the molecule `CCNC(=O)C(C)OC(=O)Nc1ccccc1` (stereo not given), the melting point is 119 °C.

With `C=COCCCC`, the boiling point was 94 °C, the log10 vapour pressure (mmHg) turned out to be 1.69 and the melting point is -92 °C.

For the molecule `CCCN=C=O`, the boiling point was 83.5 °C.

Take `C=CC(=O)OC`: the boiling point worked out at 80.2 °C, the log10 vapour pressure (mmHg) came to 1.94, the melting point is -76.5 °C and the ready biodegradability entry was “readily biodegradable”.

In the case of `CN=C(O)Oc1cccc(C)c1`, the log10 vapour pressure (mmHg) is -2.97, the melting point stood at 76.5 °C and the ready biodegradability entry is recorded as “not readily biodegradable”.

With `CN1[C@H]2CC[C@@H]1[C@@H](C(=O)O)[C@H](O)C2`, the melting point stood at 205 °C.

`C1=CCNCC1` came in with a boiling point of 108 °C and a melting point of -48 °C.

On to `C=CCOC(=O)CC(C)=O`, for which the boiling point is 196 °C and the melting point was -85 °C.

For the molecule `Cn1ccc2ccccc21`, the boiling point is 237 °C.

`NCCCCCN` gave a boiling point of 179 °C and a melting point of 9 °C.

Regarding `CCCCOC(=O)c1ccccc1`, the boiling point is 250 °C, the log10 Koc (L/kg) was determined as 2.1, the log10 vapour pressure (mmHg) was -2 and the melting point is -22.4 °C.

For `CC(=O)Oc1c(I)cc(I)cc1C(=O)Nc1ccc(Cl)cc1`, the melting point amounted to 216 °C.

Consider `C=C(C)C(=O)OCc1ccccc1`, for which the ready biodegradability result is “readily biodegradable”.

Consider `CC(=O)Nc1ccccc1`, for which the boiling point came to 304 °C, the log10 Koc (L/kg) is 1.43, the log10 vapour pressure (mmHg) is -3.7 and the melting point turned out to be 114 °C. Further, the ready biodegradability entry is given as “readily biodegradable”.

`N#Cc1c(Cl)c(Cl)c(Cl)c(C#N)c1Cl`: the boiling point came out at 350 °C, the log10 Henry constant (atm·m³/mol) was -5.7, the log10 Koc (L/kg) stood at 3.26 and the log10 vapour pressure (mmHg) was -6.24. Besides, the melting point stood at 250 °C and the ready biodegradability entry is on record as “readily biodegradable”.

The molecule `C=CCc1cc(Cl)ccc1O` returned a melting point of 48 °C.

Molecule `Clc1ccc(Cn2cncn2)cc1Cl` displayed a melting point of 46.5 °C.

On to `CCC(C)C(C)CC` (stereo not given), for which the boiling point worked out at 118 °C, the log10 biodegradation half-life (days) was found to be 0.477 and the log10 vapour pressure (mmHg) is 1.34.

As a reminder, the boiling point is the temperature of boiling at a given pressure. Usually melting point stands for the temperature, or range, at which the solid turns liquid.
